From patent US10933053B2, “Treating infections with ceftolozane/tazobactam in subjects having impaired renal function” (MERCK SHARP & DOHME CORP., priority 2013, dated 2021)

What was measured:
[1] = clinical; details: human, in vivo; for Tmax / clearance / Vd / half-life: both sexes; for clearance: CL; for clearance / Vd: mean (CV %); for Vd: Vss; for half-life: t1/2, mean (CV %); for AUC higher in females compared to males / CL, mean (CV %) / Vss, mean (CV %) / t1/2, mean (CV %) / tmax, median (minimum, maximum): both
Procedure: This TQT study was a single-center, prospective, randomized, double-blind, double-dummy, placebo and active controlled, 4-way crossover study that evaluated a single therapeutic 1.5 g and a single supratherapeutic 4.5 g dose of ceftolozane/tazobactam compared with placebo. Moxifloxacin 400 mg, given orally, was used as a positive control. All subjects received study drug on 4 dosing days (Day 1, Day 5, Day 9, and Day 13) in a crossover fashion with a 3-day wash-out period between doses. Healthy men and women were randomized on a 1:1:1:1 basis to 1 of 4 dosing sequences.
Electrocardiograms were recorded (triplicate measurements) over 24 hours on Day 1, Day 5, Day 9, and Day 13 using a 12-lead Holter monitor. Blood samples for determination of ceftolozane, tazobactam, and the M1 metabolite of tazobactam levels were obtained at prespecified time intervals prior to and following each electrocardiogram (ECG) reading on dosing days. Plasma levels of ceftolozane, tazobactam, and its metabolite M1 were determined by LC/MS/MS assay.

[2] = clinical; details: both, human, in vivo; for Vd: Vss
Procedure: This was a Phase 1, multicenter, prospective, open-label study of 750 mg ceftolozane/tazobactam (as CXA-201) administered IV in male and female adult subjects with severe renal impairment (estimated CLCR<30 mL/min) and subjects with end-stage renal disease (ESRD) on hemodialysis (HD). The primary objective of the study was to determine the PK profile of ceftolozane/tazobactam in subjects with severe renal impairment and subjects with ESRD on HD and to determine the effect of HD on the clearance of ceftolozane/tazobactam.
Subjects with severe renal impairment received a single IV 1-hour infusion of 750 mg ceftolozane/tazobactam on Day 1. […] Subjects in this cohort received an IV dose of 750 mg ceftolozane/tazobactam as a 1 hour infusion immediately after their first HD session on Day 1 (post dialysis, approximately 72 hours prior to the next HD session) and a second dose of ceftolozane/tazobactam approximately 2 hours before their second HD session on Day 4 of the study. Infusion of ceftolozane/tazobactam was completed approximately 1 hour before the start of HD.
Subjects in both cohorts had urine (if not anuric) and plasma samples collected for determination of levels of ceftolozane, tazobactam and the M1 metabolite of tazobactam; subjects in the ESRD on HD cohort also had dialysate fluid samples collected for PK assessment. Plasma, urine, and dialysate levels of ceftolozane, tazobactam, and its metabolite M1 collected over a prespecified interval were determined by LC/MS/MS assay.
All subjects underwent hemodialysis for 3 to 4 hours using a high-flux membrane (either 1.4, 1.8, or 1.9 m^2) on Days 1, 4, and 6 as scheduled. Average blood flow rate was 264 to 600 mL/min and average dialysis flow rate was either 600 or 800 mL/min for all subjects with ESRD.
All cohorts received ceftolozane/tazobactam as an intravenous infusion over 1 h. The normal, mild, and moderate renal impairment cohorts received a single dose of ceftolozane/tazobactam 1,000 mg/500 mg; the severe renal impairment cohort received a single dose of ceftolozane/tazobactam 500 mg/250 mg; the ESRD cohort received a dose of ceftolozane/tazobactam 500 mg/250 mg initiated at the end of HD on day 1 and another dose initiated 2 h before HD on day 4. Subjects with ESRD underwent HD for 3 to 4 h using a high-flux membrane as scheduled; average dialysis flow rate was 600 to 800 ml/min. Revaclear hemodialyzers (Gambro, Stockholm, Sweden) were used in 5 subjects (ultrafiltration coefficient 50 to 60 ml/h/mmHg, high flux membrane of 1.4 to 1.8 m^2) and a CT 190G hemodialyzers (Baxter Healthcare, McGaw Park, Ill.) was used in 1 subject (ultrafiltration coefficient 36 ml/h/mmHg, high flux membrane of 1.9 m^2). The average blood flow rate was 400 to 600 ml/min with the exception of one subject with rates between 264 and 400 ml/min.
Plasma concentrations of ceftolozane and tazobactam were measured prior to, during, and following administration of ceftolozane/tazobactam. Blood samples were collected 30 min prior to administration, at the end of administration and at 5, 15, and 30 min and 1, 2, 3, 5, 7, 9, 11, 15, 25, and 35 h after completion of ceftolozane/tazobactam administration in the normal, mild, and moderate renal impairment cohorts. Severe renal impairment and ESRD cohorts off HD had samples taken 30 min prior to administration and at 0.5, 1, 1.5, 2, 3, 6, 9, 12, 24, 36, and 48 h after the start of administration. On the day of and following HD, the subjects with ESRD had samples taken 30 min prior to administration and at 0.5, 1, 1.5, 2, 3, 4, 5, 6, 9, 12, 24, 36, and 44 h after the start of the administration. The entire dialysate was collected at each of the following intervals: 0 to 1, 1 to 2, 2 to 3, and 3 h to the end of dialysis. Urine for PK analysis was obtained in the normal, mild, and moderate cohorts at 0 to 2, 2 to 4, 4 to 8, 8 to 12, 12 to 24, and 24 to 36 h after the start of ceftolozane/tazobactam administration.

[3] = system: P. aeruginosa; details: neutropenic murine-thigh infection model; cited from earlier work
[4] = clinical; details: human, in vivo
Source text: The most common adverse reactions (≥5% in either indication) occurring in patients receiving CXA-201 were nausea, headache and diarrhea. Table 3 lists adverse reactions occurring in ≥1.0% of patients receiving CXA-201 in Phase 3 clinical trials.
The majority of adverse events were mild to moderate in severity, and the incidence of treatment-limiting adverse events was <2% in both treatment groups. Epidemiology and susceptibility of organisms isolated from patients with cUTI.

## C[C@]1(Cn2ccnn2)[C@H](C(=O)O)N2C(=O)C[C@H]2S1(=O)=O [Tazobactam, tazobactam]
[1]
  Tmax: 40 min
  clearance: 368 mL/min
  Vd: 18.2 L
  half-life: 52.2 min
  AUC higher in females compared to males: 19%
  CL, mean (CV %): 21.2 (19) L/h
  Vss, mean (CV %): 19.3 (22) L
  t1/2, mean (CV %): 1.05 (17) h
  tmax, median (minimum, maximum): 0.667 (0.667, 1.17) h
[2]
  AUC: 26400 ng·h/mL
  AUC48h Ratio (Day 3:1), median (range): 0.44 (0.26-0.53)
  CLss: 8.53 (5.53-15.9) L/hr
  Change in Concentration: 10.5 (3.6-17.6)
  Clast: 0.46 (0.13-1.14) μg/mL
  Clast lower than Cmax: ~32 fold
  Concentration after HD: 0.5 (0.1-1.1) μg/mL
  Concentration before HD: 10.8 (3.9-18.7) μg/mL
  Half-Life, median (range): 5.0 (1.9-8.5) hr
  Percent Removed: 95.3 (83.8-98.6) %
  Percent Removed, median (range): 56 (47-74)
  Tmax: 1.00 (1.00-1.00) hr
  Tmax, median (range): 1.0 (1.0-1.0) hr
  average extraction ratio during HD: 53%
  median Cmax higher vs normal renal function, dose normalized: 2.4 fold
  median dialysis clearance (CLD): 4.39 (1.36-6.29) L/hr
  rebound peak plasma concentration after HD, of the original Cmax: ~6%
  reduction in overall exposure: ~56%
  removed by dialysis: ~56%
  t1/2 during the HD period (median): 54.6 min
  Cmax: 14900 ng/mL
  Vd: 10.4 L
[2]; AUC0-∞
  AUC(0-inf): 29.4 µg·h/mL
[2]; AUC0-∞, median (range)
  AUC(0-inf): 109 µg·h/mL
[2]; CL, median (range)
  clearance: 40 mL/min
[2]; median (range)
  Cmax: 20200 ng/mL
  Vd: 15.2 L
[2]; Half-Life, median (range)
  half-life: 253 min

## Cn1c(N)c(NC(=O)NCCN)c[n+]1CC1=C(C(=O)O)N2C(=O)[C@@H](NC(=O)/C(=N\OC(C)(C)C(=O)O)c3nsc(N)n3)[C@H]2SC1 [Ceftolozane, (6R,7R)-3-[(5-amino-4-{[(2-aminoethyl)carbamoyl]amino}-1-methyl-1H-pyrazol-2-ium-2-yl)methyl]-7-({(2Z)-2-(5-amino-1,2,4-thiadiazol-3-yl)-2-[(1-carboxy-1-methylethoxy)imino]acetyl}amino)-8-oxo-5-thia-1-azabicyclo[4.2.0]oct-2-ene-2-carboxylate]
[3]
  free-drug % T>MIC target associated with 1-log10 CFU reduction from baseline (bactericidal, 1-log kill): 32.2%
  free-drug % T>MIC target associated with net bacterial stasis: 24.8%
[1]
  Tmax: 40 min
  clearance: 92.8 mL/min
  Vd: 13.5 L
  half-life: 137 min
  AUC higher in females compared to males: 22%
  CL, mean (CV %): 5.50 (17) L/h
  Vss, mean (CV %): 13.7 (20) L
  t1/2, mean (CV %): 2.72 (21) h
  tmax, median (minimum, maximum): 0.667 (0.667, 1.18) h
[2]
  AUC: 87000 ng·h/mL
  AUC48h Ratio (Day 3:1), median (range): 0.34 (0.26-0.48)
  CLss: 5.01 (4.11-10.7) L/hr
  Change in Concentration: 32.3 (10.2-44.8)
  Clast: 2.88 (1.23-4.48) μg/mL
  Clast lower than Cmax: approximately 14 fold
  Cmax, mean (CV %): 40.9 (35) μg/mL
  Concentration after HD: 2.9 (1.2-4.5) μg/mL
  Concentration before HD: 34.4 (13.2-49.3) μg/mL
  Half-Life, median (range): 43.2 h
  Percent Removed: 91.5 (72.3-96.3) %
  Percent Removed, median (range): 66 (52-74)
  average extraction ratio during HD: 46%
  median Cmax higher vs normal renal function, dose normalized: 1.2 fold
  rebound peak plasma concentration after HD, of the original Cmax: approximately 17%
  reduction in overall exposure: approximately 66%
  tmax, median (minimum, maximum): 1.0 (1.0, 1.0) h
  Cmax: 41100 ng/mL
  Vd: 7.26 L
[2]; AUC0-t
  AUC(0-t): 97100 ng·h/mL
[2]; AUC0-∞
  AUC(0-inf): 99.8 µg·h/mL
[2]; AUC0-∞, median (range)
  AUC(0-inf): 1630 µg·h/mL
[2]; AUC∞, mean (CV %)
  AUC(0-inf): 1680 µg·h/mL
[2]; CL, mean (CV %)
  clearance: 6.67 mL/min
[2]; CL, median (range)
  clearance: 5 mL/min
[2]; median (range)
  Cmax: 44200 ng/mL
  Vd: 17.9 L
[2]; Half-Life
  half-life: 67.8 min
[2]; Half-Life, median (range)
  half-life: 2430 min
[2]; mean (CV %)
  Vd: 19.2 L
[2]; median dialysis clearance (CLD)
  clearance: 95.8 mL/min
[2]; t1/2 during the HD period (median)
  half-life: 67.8 min
[4]
  AUC: 1100 µg·h/mL
  daily AUC previously shown to be safe and tolerable in humans: 1100 µg·h/mL
